Tests used:
[1] = Water penetration scan by polarized optical microscopy (POM); type: physicochemical; details: for Appearance of the Lyotropic phase at excess water (25° C.-50° C.): POM, equilibration 1 h; for Lyotropic phase formed in water penetration scan: neat amphiphile to pure water gradient, temperature as worded
Protocol: Polarized Optical Microscopy (POM): Samples used for Polarized Optical Microscopy (POM) were prepared by placing a small amount of prodrug amphiphile on a microscope slide and covered with a cover slip. Water was placed on the edges of the cover slip and allowed to flow into the sample by capillary action. The microscope slide was placed in a Linkam PE94 hot stage (Linkam Scientific Instruments Ltd. Surrey, England) and heated at 3° C./min between room temperature and 50° C. […] Images were captured with a Nikon DS-Ri-1 camera. All images were taken at 100× magnification.
(§1) The results of the water penetration scans and SAXS are summarised in Tables 1 and 2 and indicate that various self-assembled lyotropic liquid crystalline phases were formed for the different Gem apmphiphiles, with a broad range of mesophases from lamellar crystalline structure to lamellar liquid crystalline, cubic mesophases and sponge mesophases.
The textures obtained from water penetration scans along the established concentration gradient from neat amphiphile to pure water provide a quick insight into the lyotropic phase behaviour of a surfactant/water system. Melted neat amphiphile was placed on a microscopic slide and water was then introduced around the edge.

[2] = SAXS phase behaviour of hydrated Gem amphiphiles; type: physicochemical; details: equilibration 48 h
Protocol: SAXS analyses of the bulk and lyotropic phases of the amphiphiles were performed on a Bruker NanoSTAR laboratory SAXS instrument (Brucker AXS, Kalsruhe, Germany).
The equilibrated lyotropic phases were placed into a demountable button sample cells. For the analysis of the dispersions, a multi-capillary holder was used. Button cells and capillary holder interchangeably fit into a block setup that was temperature-controlled with a Peltier heater-cooler system. 2D scattering images were radially averaged to conventional 1 D scattering plots and as a function of the q value (Å-1) where q is the length of the scattering vector which was calculated using the formula q=(4π/λ)sin(θ/2), where A is the wavelength and 6 is the scattering angle.
The mesophases formed were determined by indexing peaks using the reflection laws as described by De Campo et al., Langmuir, 2004. 20(13), 5254-5261. Small angle X-ray scattering patterns of emulsions and liposomes display large broad peaks while liquid crystalline phases of highly ordered nanostructured particles such as cubosomes and hexosomes display distinct sharp peaks. The relative positions of the peaks (“spacing”) allows for the elucidation of the symmetry of the structure. The interplanar distance (d) between two reflecting planes may be calculated using the formula d=(2π)/q, where q is the absolute position of the peak. This, in turn allows for the calculation of the lattice parameter (a), the size of the unit cell, to be calculated.
as §1

[3] = test system: CACO2 cell line; experiment: MTS cytotoxicity assay, 72 hours; type: cell-based; details: CACO2, 72 hours, prodrugs as nanoparticle dispersions
Protocol: (§2) The cytotoxicity of gemcitabine nanoparticles dispersion made from gemcitabine amphiphiles in the presence or absence of DMPC-cholesterol was evaluated in comparison to gemcitabine alone in several pancreatic cell lines including CF Pac-1, BxPC3, Panc-1 and MIA PaCa-2, MCF7and CACO2 cell lines. The cell lines were exposed to media with varying concentrations of the treatments (100-0.001 μM) and incubated for 72 hours. Cell viability was determined using the MTS assay and was conducted in triplicate to derive the IC50 values.

[4] = test system: CFPAC-1 cell line; experiment: MTS cytotoxicity assay, 72 hours; type: cell-based; details: CFPAC-1, 72 hours, prodrugs as nanoparticle dispersions
Protocol: as §2

[5] = test system: MCF7 cell line; experiment: MTS cytotoxicity assay, 72 hours; type: cell-based; details: MCF7, 72 hours, prodrugs as nanoparticle dispersions
Protocol: as §2

[6] = test system: Carboxylesterase from porcine liver; experiment: In-situ enzymatic bioconversion of prodrug nanoparticles (LC/MS); type: in vitro ADME; details: DMPC/cholesterol nanoparticles, 50 uM prodrug, 33.7 units/mL, 37° C.; for Bioconversion to Gemcitabine: FIG. 7b
Protocol: Nanoparticle dispersions of a mixture of Dimyristoylphosphatidylcholine and cholesterol with either (i) Gemcitabine-Phytanyl, (ii) Gemcitabine-PEG3-oleoyl or (iii) Gemcitabine-PEG3-oleoylamide were made at […] concentration of Gemcitabine prodrugs. Carboxylesterase solution from porcine liver obtained from Sigma-Aldrich was added to the nanoparticle dispersions, and the enzyme concentration in each respective nanoparticle dispersion was set to 33.7 units/mL.
The time at which the enzyme solution was added was taken as time zero for the hydrolysis reaction. The mixture was maintained at 37° C. throughout the experiment. The concentration of the hydrolysis product was measured at various time intervals using LC/MS and LC/MS^2 for the detection of prodrug converted to the active drug Gemcitabine. The time at which the sample was injected into the LC column was taken to be the reaction time for such sample. The hydrolysis progress curve, showing the decrease in the concentration of original substrate was plotted against time, whereas the bioconversion to Gemcitabine was determined by MS^2 methods. Standard curves for both prodrugs and the active bioconverted gemcitabine was assessed by using standard samples.
Thermo Finnigan (Finnigan LCQ Series, Thermo Scientific, USA) LC/MS equipped with an electron spray ionization (ESI) was used to assess the enzymatic reaction using both MS and MS^2 mode. The prodrug depletion was detected by negative ion for MS. The conversion of the prodrug to the Gemcitabine was detected by MS^2 at 112.1. 10 μl of sample withdrawn from the reaction solution was injected directly into a Phenomenex C8 150 mm×2 mm 5 uLuna column (Phenomenex, Australia). A 100% Methanol solution was used as mobile phase with the flow rate of 0.5 ml/min. The sample after the column separation was eluted to ESI source. The capillary temperature and ion spray voltage were set at 350° C. and 4.60 respectively. The sample temperature was well maintained at 37° C. during the entire measurement by incubating the samples in the temperature controlled auto-sampler. Data were acquired and processed with Xcalibur Quan chromatography software.
The decreased prodrug was calculated as the percentage of the area under the peak of Gemcitabine-prodrug compared to that before addition of the enzyme. The amount of Gemcitabine produced, was calculated from the area under the peak at 3.4 min related to Gemcitabine at 263 and its MS^2 at 112.1.

| Structure (SMILES) | Appearance of the Lyotropic phase at excess water (25° C.-50° C.) [1] | Lyotropic phase lattice parameter ([2]; 25° C.) [Å] | Lyotropic phase lattice parameter ([2]; 37° C.) [Å] | Lyotropic phase ([2]; 25° C.) | Lyotropic phase ([2]; 37° C.) | Prodrug reduction (hydrolysis) by CES enzyme [6] | other results |
| --- | --- | --- | --- | --- | --- | --- | --- |
| CCCCC/C=C\C/C=C\CCCCCCCCOC(=O)Nc1ccn([C@@H]2O[C@H](CO)[C@@H](O)C2(F)F)c(=O)n1 (relative stereo) [Gem-Lin, 2′-deoxy-2′,2′-difluoro-N4-(((cis-9,12,octadecadienenyl)oxy)carbonyl) cytidine] | A birefringent band (LC) | 53.2 ± 0.5 | 53.2 ± 0.5 | – | – | – | – |
| CCCCCCCC/C=C\CCCCCCCCOC(=O)Nc1ccn([C@@H]2O[C@H](CO)[C@@H](O)C2(F)F)c(=O)n1 (relative stereo) [Gem-Ole, 2′-deoxy-2′,2′-difluoro-N4-(((cis-9, octadecenyl)oxy)carbonyl) cytidine] | Anisotropic band | – | – | – | – | – | Lyotropic phase formed in water penetration scan [1]: traditional lamellar (La) phase at room temperature and 3D cubic (Pn3m) phase at elevated temperatures above 33 °C |
| CCCCC/C=C\C/C=C\CCCCCCCC(=O)OCCOCCOCCOC(=O)Nc1ccn([C@@H]2O[C@H](CO)[C@@H](O)C2(F)F)c(=O)n1 (relative stereo) [Gem-PEG3-linoleoyl, 2′-deoxy-2′,2′-difluoro-N4-((((cis-9, cis-12-octadecadienoyl)-oxy-triethyleneglycol)oxy)carbonyl) cytidine] | An isotropic band, emulsion | – | – | Sponge phase (L3) | Sponge phase (L3) | – | IC50 [3]: 200 nM; IC50 [4]: 583 nM; IC50 [5]: 100 nM |
| CCCCCCCC/C=C\CCCCCCCC(=O)OCCOCCOCCOC(=O)Nc1ccn([C@@H]2O[C@H](CO)[C@@H](O)C2(F)F)c(=O)n1 (relative stereo) [Gem-PEG3-oleoyl, 2′-deoxy-2′,2′-difluoro-N4-((((cis-9, octadecenoyl)oxy-triethyleneglycol)oxy)carbonyl) cytidine] | Birefringent ( lamellar) | 55.26 ± 0.5 | 55.26 ± 0.5 | – | – | reduced to Gem-PEG3 and the oleic acid quickly | Bioconversion to Gemcitabine [6]: bioconverted Gemcitabine very slowly |
| CCCCCCCC/C=C\CCCCCCCC(=O)NCCOCCOCCOC(=O)Nc1ccn([C@@H]2O[C@H](CO)[C@@H](O)C2(F)F)c(=O)n1 (relative stereo) [Gem-PEG3-oleoylamide, 2′-deoxy-2′,2′-difluoro-N4-((((cis-9, octadecenoyl)amino-triethyleneglycol)oxy)carbonyl) cytidine] | – | – | – | – | – | reduced at a lower rate | Time of prodrug reduction ([6]; FIG. 7a): 6 h; Bioconversion to Gemcitabine [6]: produced Gemcitabine sustainably |
| CC/C=C\C/C=C\C/C=C\CCCCCCCC(=O)OCCOCCOCCOCCOCCOCCOC(=O)Nc1ccn([C@@H]2O[C@H](CO)[C@@H](O)C2(F)F)c(=O)n1 (relative stereo) [Gem-PEG6-linolenoyl, 2′-deoxy-2′,2′-difluoro-N4-((((cis-9, 12, 15 octadecatrienoyl)-oxy-hexaethyleneglycol)oxy)carbonyl) cytidine] | Emulsion | – | – | Sponge phase (L3) | – | – | – |
| CCCCCCCC/C=C\CCCCCCCC(=O)OCCOCCOCCOCCOCCOCCOC(=O)Nc1ccn([C@@H]2O[C@H](CO)[C@@H](O)C2(F)F)c(=O)n1 (relative stereo) [Gem-PEG6-oleoyl, 2′-deoxy-2′,2′-difluoro-N4-((((cis-9, octadecenoyl)-oxy-hexaethyleneglycol)oxy)carbonyl) cytidine] | An isotropic band, cubic phase | 125.2 ± 0.5 | 124.4 ± 0.5 | Ia3d | Ia3d | – | – |
| CC(C)CCCC(C)CCCC(C)CCCC(C)CCOC(=O)Nc1ccn([C@@H]2O[C@H](CO)[C@@H](O)C2(F)F)c(=O)n1 (stereo partly drawn) [Gem-Phy, 2′-deoxy-2′,2′-difluoro-N4-(((3,7,11,15-tetramethyl-hexadecyl)oxy)carbonyl) cytidine] | An isotropic band | 135.8 ± 0.5 | 135.8 ± 0.5 | Ia3d | Ia3d | slowest prodrug to reduce completely | Lyotropic phase formed in water penetration scan [1]: 3D inversed bicontinous cubic phase (Pn3m space group) initially and then transform to 2D hexagonal phase |

Reference: US12503483B2, “Gemcitabine amphiphile prodrugs” (NANOMED HOLDINGS PTY LTD, priority 2018, dated 2025)
